Data from patent US20220031800A1, “PEPTIDES FOR TREATING NON-EXUDATIVE MACULAR DEGENERATION AND OTHER DISORDERS OF THE EYE” (Allegro Pharmaceuticals, LLC, priority 2019, published 2022).
Square brackets hold non-standard residues; d marks the D form. Peptide text beside a SMILES is read from it. Cya = N[C@@H](CS(=O)(=O)O)C(=O)O

Test system: study eye of subjects with intermediate non-exudative AMD
Experiment: SD-OCT Analysis 2 (thickness, volume, map coverage of retinal layers)
Format: in vivo, human
Protocol: Numerous study assessments were conducted at various time points throughout the study. Included among these study assessments were; refractive eye examinations, determinations of BCVA AND low-luminance BCVA, Lanthony D-15 color vision test, measurement of intraocular pressure (IOP), Indirect ophthalmoscopy/dilated fundus examinations and spectral-domain optical coherence tomography (SD-OCT). Also, blood and saliva samples were obtained from each subject for genetic analysis. The above-listed study assessments were performed at the time points indicated in Table 1, below: The OCT scans were analyzed by two (2) unrelated experts. In Analysis #2, the OCT images of study eyes were analyzed to determine mean thickness and mean volume of numerous retinal subfields and layer segments at baseline and at Week 12 for sham eyes and at baseline and at Week 32 for risuteganib eyes, to document any significant differences between groups of eyes based on baseline measurements or changes from baseline in those measurements. In addition to the quantitative analysis of OCT images, OCT Analysis #2 included qualitative assessment of the OCT images to identify GA, pseudodrusen, and disruption of the ELM and EZ layers. FIGS. 9A, 9B and 9C illustrate the level of varying pathology within the ELM based on quantitative mapping that were also assessed, with FIG. 9A (left) showing no ELM disruption, FIG. 9B (center) showing segmental disruption, and FIG. 9C showing diffuse disruption.

[1] = change from baseline at Week 32, risuteganib super-responder eyes, n = 8
[2] = paired change from baseline at Week 32, risuteganib arm n = 24
[3] = paired difference from baseline at Week 32, risuteganib arm n = 24

## C[C@@H](O)[C@H](NC(=O)[C@H](CS(=O)(=O)O)NC(=O)CNC(=O)[C@H](CCCNC(=N)N)NC(=O)CN)C(=O)N1CCC[C@H]1C(=O)O [risuteganib, Glycyl-L-arginylglycyl-3-sulfo-L-alanyl-L-threonyl-L-proline] (H-GRG[Cya]TP-OH)
[1]
  Change in mean thickness, ELM-RPE mid subfield: −2.493 μm
  Change in mean thickness, EZ-RPE central subfield: −1.803 μm
  Change in mean thickness, EZ-RPE foveal center: 6.825 μm
  Change in mean thickness, EZ-RPE mid subfield: −1.445 μm
  Change in mean thickness, Inner retina central subfield: 8.759 μm
  Change in mean thickness, Inner retina mid subfield: 8.511 μm
  Change in mean thickness, ONL-EZ central subfield: −9.158 μm
  Change in mean thickness, ONL-EZ mid subfield: −8.556 μm
  Change in mean thickness, ONL-RPE central subfield: −10.961 μm
  Change in mean thickness, ONL-RPE foveal center: −6.825 μm
  Change in mean thickness, ONL-RPE mid subfield: −10.001 μm
  Change in mean thickness, RPE-BM central subfield: −11.226 μm
  Change in mean thickness, RPE-BM foveal center: −14.381 μm
  Change in mean thickness, RPE-BM mid subfield: −6.715 μm
  Change in mean thickness, Total retinal central subfield: −2.202 μm
  Change in mean thickness, Total retinal foveal center: −7.569 μm
  Change in mean thickness, Total retinal mid subfield: −1.490 μm
  Change in volume, ELM-EZ central subfield: −0.001 mm^3
  Change in volume, ELM-EZ mid subfield: −0.003 mm^3
  Change in volume, ELM-RPE: 0.171 mm^3
  Change in volume, ELM-RPE central subfield: −0.003 mm^3
  Change in volume, ELM-RPE mid subfield: −0.008 mm^3
  Change in volume, EZ-RPE: −0.051 mm^3
  Change in volume, EZ-RPE central subfield: −0.001 mm^3
  Change in volume, EZ-RPE mid subfield: −0.005 mm^3
  Change in volume, ONL-EZ central subfield: −0.007 mm^3
  Change in volume, ONL-EZ mid subfield: −0.027 mm^3
  Change in volume, ONL-RPE: 0.044 mm^3
  Change in volume, ONL-RPE central subfield: −0.008 mm^3
  Change in volume, ONL-RPE mid subfield: −0.032 mm^3
  Change in volume, RPE-BM: −0.048 mm^3
  Change in volume, RPE-BM central subfield: −0.009 mm^3
  Change in volume, RPE-BM mid subfield: −0.021 mm^3
  Change in volume, Total retinal: −0.247 mm^3
  Change in volume, Total retinal central subfield: −0.001 mm^3
  Change in volume, Total retinal mid subfield: −0.005 mm^3
  Map coverage, 0 μm EZ: 5.026%
  Map coverage, 0 μm RPE-BM: 1.546%
  Map coverage, 10 μm EZ: 5.037%
  Map coverage, 20 μm EZ: 4.506%
  Map coverage, 50 μm RPE-BM: −3.222%
  Map coverage, 150 μm RPE-BM: 2.943%
  Map coverage, 250 μm RPE-BM: −0.017%
[2]
  Change in mean (SD) thickness, ELM-EZ central subfield: −1.827 μm
  Change in mean (SD) thickness, ELM-EZ mid subfield: −0.106 μm
  Change in mean (SD) thickness, ELM-RPE central subfield: −2.912 μm
  Change in mean (SD) thickness, ELM-RPE foveal center: −6.094 μm
  Change in mean (SD) thickness, ELM-RPE mid subfield: −1.593 μm
  Change in mean (SD) thickness, EZ-RPE central subfield: −1.085 μm
  Change in mean (SD) thickness, EZ-RPE foveal center: −0.407 μm
  Change in mean (SD) thickness, EZ-RPE mid subfield: −1.486 μm
  Change in mean (SD) thickness, Inner retina central subfield: 3.880 μm
  Change in mean (SD) thickness, Inner retina mid subfield: 3.893 μm
  Change in mean (SD) thickness, ONL-EZ central subfield: −6.131 μm
  Change in mean (SD) thickness, ONL-EZ mid subfield: −4.954 μm
  Change in mean (SD) thickness, ONL-RPE central subfield: −7.216 μm
  Change in mean (SD) thickness, ONL-RPE foveal center: −3.488 μm
  Change in mean (SD) thickness, ONL-RPE mid subfield: −6.441 μm
  Change in mean (SD) thickness, RPE-BM central subfield: −4.178 μm
  Change in mean (SD) thickness, RPE-BM foveal center: −8.126 μm
  Change in mean (SD) thickness, RPE-BM mid subfield: −2.086 μm
  Change in mean (SD) thickness, Total retinal central subfield: −3.336 μm
  Change in mean (SD) thickness, Total retinal foveal center: −4.154 μm
  Change in mean (SD) thickness, Total retinal mid subfield: −2.548 μm
  Change in volume, ELM-EZ central subfield: −0.001 mm^3
  Change in volume, ELM-EZ mid subfield: 0.000 mm^3
  Change in volume, ELM-RPE: 0.048 mm^3
  Change in volume, ELM-RPE central subfield: −0.002 mm^3
  Change in volume, ELM-RPE mid subfield: −0.005 mm^3
  Change in volume, EZ-RPE: −0.027 mm^3
  Change in volume, EZ-RPE central subfield: −0.001 mm^3
  Change in volume, EZ-RPE mid subfield: −0.005 mm^3
  Change in volume, ONL-EZ central subfield: −0.005 mm^3
  Change in volume, ONL-EZ mid subfield: −0.016 mm^3
  Change in volume, ONL-RPE: −0.009 mm^3
  Change in volume, ONL-RPE central subfield: −0.005 mm^3
  Change in volume, ONL-RPE mid subfield: −0.020 mm^3
  Change in volume, RPE-BM: −0.006 mm^3
  Change in volume, RPE-BM central subfield: −0.003 mm^3
  Change in volume, RPE-BM mid subfield: −0.007 mm^3
  Change in volume, Total retinal: −0.048 mm^3
  Change in volume, Total retinal central subfield: −0.002 mm^3
  Change in volume, Total retinal mid subfield: −0.008 mm^3
[3]
  Map coverage, 0 μm EZ: 2.574%
  Map coverage, 0 μm RPE-BM: 1.282%
  Map coverage, 10 μm EZ: 2.515%
  Map coverage, 20 μm EZ: 2.431%
  Map coverage, 50 μm RPE-BM: −2.644%
  Map coverage, 150 μm RPE-BM: 2.739%
  Map coverage, 250 μm RPE-BM: −0.006%
